Experimental data published in PubChem BioAssay (NCI).
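GI50: concentration for 50% inhibition of growth. TGI is the concentration that stops growth completely.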

Experiments:
Test in all cases: NCI tumour cell line growth inhibition, 384-well format
MALME-3M melanoma = system: MALME-3M melanoma
COLO 205 colon = system: COLO 205 colon
U251 glioblastoma = system: U251 glioblastoma
K-562 leukemia = system: K-562 leukemia
ACHN renal = system: ACHN renal
A498 renal = system: A498 renal
UACC-257 melanoma = system: UACC-257 melanoma
NCI-H322M lung = system: NCI-H322M lung
MDA-MB-231 breast = system: MDA-MB-231 breast
MCF7 breast = system: MCF7 breast
SN12C renal = system: SN12C renal
HOP-62 NSCLC = system: HOP-62 NSCLC
TK-10 renal = system: TK-10 renal
SF-268 CNS = system: SF-268 CNS
RPMI-8226 leukemia = system: RPMI-8226 leukemia
MOLT-4 leukemia = system: MOLT-4 leukemia
CAKI-1 renal = system: CAKI-1 renal
OVCAR-4 ovarian = system: OVCAR-4 ovarian
SF-295 CNS = system: SF-295 CNS
KM12 colon = system: KM12 colon
SW-620 colon = system: SW-620 colon
EKVX NSCLC = system: EKVX NSCLC
SR leukemia = system: SR leukemia
HS 578T breast = system: HS 578T breast
SK-MEL-28 melanoma = system: SK-MEL-28 melanoma
SNB-75 CNS = system: SNB-75 CNS
HCT-15 colon = system: HCT-15 colon
A549 NSCLC = system: A549 NSCLC
IGROV1 ovarian = system: IGROV1 ovarian
SNB-19 CNS = system: SNB-19 CNS
CCRF-CEM leukemia = system: CCRF-CEM leukemia
BT-549 breast = system: BT-549 breast
HT29 colon = system: HT29 colon
OVCAR-3 ovarian = system: OVCAR-3 ovarian
NCI-H522 lung = system: NCI-H522 lung
OVCAR-8 ovarian = system: OVCAR-8 ovarian
SK-OV-3 ovarian = system: SK-OV-3 ovarian
PC-3 prostate = system: PC-3 prostate
UACC-62 melanoma = system: UACC-62 melanoma
SK-MEL-5 melanoma = system: SK-MEL-5 melanoma
OVCAR-5 ovarian = system: OVCAR-5 ovarian
NCI-H23 lung = system: NCI-H23 lung
LOX IMVI melanoma = system: LOX IMVI melanoma
HCC-2998 colon = system: HCC-2998 colon
HL-60(TB) leukemia = system: HL-60(TB) leukemia
SF-539 CNS = system: SF-539 CNS
UO-31 renal = system: UO-31 renal
NCI/ADR-RES ovarian = system: NCI/ADR-RES ovarian
786-0 renal = system: 786-0 renal
T-47D breast = system: T-47D breast
NCI-H460 NSCLC = system: NCI-H460 NSCLC
RXF 393 renal = system: RXF 393 renal
M14 melanoma = system: M14 melanoma
DU-145 prostate = system: DU-145 prostate
MDA-MB-468 breast = system: MDA-MB-468 breast
MDA-MB-435 melanoma = system: MDA-MB-435 melanoma
HOP-92 NSCLC = system: HOP-92 NSCLC
NCI-H226 lung = system: NCI-H226 lung

## CN1CCN(c2nc(C3=C(c4c[nH]c5ccccc45)C(=O)NC3=O)c3ccccc3n2)CC1
MALME-3M melanoma
  GI50: 4.68 µM
  TGI: 16.2 µM
COLO 205 colon
  GI50: 6.82 µM
  TGI: 19.6 µM
U251 glioblastoma
  GI50: 16.1 µM
  TGI: 29.9 µM
K-562 leukemia
  GI50: 12.2 µM
  TGI: 24.7 µM
ACHN renal
  GI50: 15.5 µM
  TGI: 30 µM
A498 renal
  GI50: 15.3 µM
  TGI: 28.6 µM
UACC-257 melanoma
  GI50: 13.6 µM
  TGI: 26.5 µM
NCI-H322M lung
  GI50: 16.3 µM
  TGI: 31.2 µM
MDA-MB-231 breast
  GI50: 15.4 µM
  TGI: 30.7 µM
MCF7 breast
  GI50: 10.9 µM
  TGI: 23 µM
SN12C renal
  GI50: 13.2 µM
  TGI: 26.3 µM
HOP-62 NSCLC
  GI50: 13.7 µM
  TGI: 26.7 µM
TK-10 renal
  GI50: 17.8 µM
  TGI: 44.2 µM
SF-268 CNS
  GI50: 18.1 µM
  TGI: 32.3 µM
RPMI-8226 leukemia
  GI50: 10.1 µM
  TGI: 21.7 µM
MOLT-4 leukemia
  GI50: 13.1 µM
  TGI: 25.8 µM
CAKI-1 renal
  GI50: 16.3 µM
  TGI: 32.3 µM
OVCAR-4 ovarian
  GI50: 21.8 µM
  TGI: 44.6 µM
SF-295 CNS
  GI50: 18.6 µM
  TGI: 32.7 µM
KM12 colon
  GI50: 3.7 µM
  TGI: 15.4 µM
SW-620 colon
  GI50: 18.5 µM
  TGI: 32.6 µM
EKVX NSCLC
  GI50: 17.8 µM
  TGI: 33.2 µM
SR leukemia
  GI50: 7.06 µM
  TGI: 19.7 µM
HS 578T breast
  GI50: 16.8 µM
  TGI: 30.5 µM
SK-MEL-28 melanoma
  GI50: 16.4 µM
  TGI: 30 µM
SNB-75 CNS
  GI50: 19.9 µM
  TGI: 37.3 µM
HCT-15 colon
  GI50: 12.1 µM
  TGI: 28.4 µM
A549 NSCLC
  GI50: 16.9 µM
  TGI: 36.6 µM
IGROV1 ovarian
  GI50: 18.1 µM
  TGI: 34.5 µM
SNB-19 CNS
  GI50: 19.8 µM
  TGI: 39.5 µM
CCRF-CEM leukemia
  GI50: 13.1 µM
  TGI: 25.9 µM
BT-549 breast
  GI50: 13.5 µM
  TGI: 26.3 µM
HT29 colon
  GI50: 13.9 µM
  TGI: 27.4 µM
OVCAR-3 ovarian
  GI50: 15.8 µM
  TGI: 30.7 µM
NCI-H522 lung
  GI50: 15.4 µM
  TGI: 28.7 µM
OVCAR-8 ovarian
  GI50: 13.8 µM
  TGI: 27.6 µM
SK-OV-3 ovarian
  GI50: 18.1 µM
  TGI: 38.8 µM
PC-3 prostate
  GI50: 17.5 µM
  TGI: 34.3 µM
UACC-62 melanoma
  GI50: 15.4 µM
  TGI: 28.8 µM
SK-MEL-5 melanoma
  GI50: 5.58 µM
  TGI: 18.7 µM
OVCAR-5 ovarian
  GI50: 20.8 µM
  TGI: 44 µM
NCI-H23 lung
  GI50: 16.1 µM
  TGI: 29.8 µM
LOX IMVI melanoma
  GI50: 16.1 µM
  TGI: 29.7 µM
HCC-2998 colon
  GI50: 17.7 µM
  TGI: 31.6 µM
HL-60(TB) leukemia
  GI50: 15 µM
  TGI: 28.2 µM
SF-539 CNS
  GI50: 15 µM
  TGI: 28.3 µM
UO-31 renal
  GI50: 17.9 µM
  TGI: 44.9 µM
NCI/ADR-RES ovarian
  GI50: 19.5 µM
  TGI: 41.3 µM
786-0 renal
  GI50: 13.8 µM
  TGI: 26.9 µM
T-47D breast
  GI50: 20.2 µM
  TGI: 35.7 µM
NCI-H460 NSCLC
  GI50: 18.6 µM
  TGI: 32.6 µM
RXF 393 renal
  GI50: 15.1 µM
  TGI: 28.4 µM
M14 melanoma
  GI50: 13.9 µM
  TGI: 26.8 µM
DU-145 prostate
  GI50: 16.3 µM
  TGI: 32.6 µM
MDA-MB-468 breast
  GI50: 18.3 µM
  TGI: 32.5 µM
MDA-MB-435 melanoma
  GI50: 16.6 µM
  TGI: 30.2 µM
HOP-92 NSCLC
  GI50: 15.8 µM
  TGI: 29.4 µM
NCI-H226 lung
  GI50: 13.4 µM
  TGI: 30.3 µM
